Source: US20050154537A1, “Methods, program products, and systems for single and multi-agent dosing and other related methods” (priority 2003, published 2005)

Columns and labels:
Assay type in all cases: in vivo
Platelets = assay: Lookup table: marker validity (nadir) window, Platelets; settings: days elapsed between current dose and marker; for Platelets LL: lower limit of nadir range; for Platelets UL: upper limit of nadir range
From the text: (§1) A lookup table has been constructed (see above example), in the form of a table, to represent the relationship of each trial Agent and its qualified Clinical Markers. This table includes information regarding the Maximum Dose and the Inverse Marker Applicability for each Agent. The gray cells on the Cycle Dose Modifier indicate these values.
(§2) The table also includes information regarding the nadir of applicability for each Agent—Marker combination. The range, in days and indicated as the Lower Limit and Upper limit, has been determined by calculating a percentage (20%) above and below the true nadir value when only a single value is known. Otherwise, the upper and lower nadir values are used. […] The values of Upper and Lower limits is shown as a property of the Association between Markers and Agents. The Relevancy of a Marker can be computed using the lookup table by comparing the number of days elapsed between the date of the application of the current dose and the date on which the Marker was taken to the upper and lower values for that Agent Marker Association. If the elapsed days are greater than or equal to the lower limit and less than or equal to the upper limit, then the calculations provided by the Cycle Dose Modifier are said to be relevant and thereby applicable as indicated in the yellow Marker Validity cell. The Relevancy of Cycle Dose Modifier Calculations for Agent 1 is based on the Validity of Marker for Agent 1 calculated by: =IF(and((($B13−B6)>=VLOOKUP(B$3,Validity!$A$3:$K$8,10)),((B$13−B6)<=VLOOKUP(B$3,Validity!$A$3:$K$8,11))),“valid”,“invalid”)

Neutrophil Count (ANC) = assay: Lookup table: marker validity (nadir) window, Neutrophil Count (ANC); settings: days elapsed between current dose and marker; for Neutrophil Count (ANC) LL: lower limit of nadir range; for Neutrophil Count (ANC) UL: upper limit of nadir range
From the text: as §1, §2

Hemoglobin (Hgb) = assay: Lookup table: marker validity (nadir) window, Hemoglobin (Hgb); settings: days elapsed between current dose and marker; for Hemoglobin (Hgb) LL: lower limit of nadir range; for Hemoglobin (Hgb) UL: upper limit of nadir range
From the text: as §1, §2

LDL [1] = assay: Non-Pharm Example 1: doublet Lipitor and aerobics, LDL marker
From the text: (§3) Efficacy/Toxicity Determinant Agent 2 (Gemzar) (ETD2) is a value determined by the prescriber. Set at an initial value of 1, this value is then adjusted based upon actual case scenarios with a full data set to adjust the value to identify the contribution to the toxicity or efficacy until the actual value is achieved. It can be used to modify dose based upon non-pharmacologic effects such as diet, exercise and activity as determined by the prescriber. A non-pharmacologic two-part combination therapy example could include a cholesterol lowering agent and exercise or cholesterol lowering agent and a restrictive diet. In place of dose the exercise value would be measured in ‘METS’ (Metabolic Equivalent of oxygen consumption) or the dietary prescription in calories or grams of fat or cholesterol.
Doublet Agent One: Pharmacologic, Agent Two:Non-Pharmacologic (Exercise)

LDL [2] = assay: Non-Pharm Example 2: triplet Lipitor, aerobics and diet, LDL marker
From the text: as §3, with “Set” for “Efficacy/Toxicity Determinant Agent 2 (Gemzar) (ETD2) is a value determined by the prescriber. Set”, “three-part” for “two-part”, “agent,” for “agent and”, “exercise” for “exercise or cholesterol lowering agent”, “of” for “of fat or”
Triplet, Agent One: Pharmacologic, Agent Two: Non-Pharmacologic (Exercise), Agent Three: Diet (Grams of Cholesterol)

INR = assay: Single agent cycle dose modifier, warfarin sodium patient example; settings: for Current Level of Efficacy/CLTE: current cycle total dose 57, dose Oct. 21, marker Oct. 26, 2004; for Previous Level of Efficacy/PLTE: previous cycle total dose 60, seven-day cycle
From the text: Warfarin Sodium (coumadin) is used in this example as a single agent. Table 1 illustrates a method of revising a drug dose in treating a patient with one pharamcologic […] modality to optimize pharmacologic outcome and to reduce the risk of an adverse drug event while assessing the clinical relevancy and validity of the measured surrogate marker.
In Table 1, Previous Cycle Total Dose (PCTD) is a value directly entered without new calculation. It is the cumulative amount of the agent administered during the previous treatment cycle as defined by the total amount of drug given over a fixed period of time, such as in chemotherapy, the total amount, e.g., mg/m^2, administered throughout the defined regimen period. In this single agent therapy example for chronic disease management, that is, prevention of venous thrombosis with warfarin sodium, the cycle becomes the total amount of warfarin sodium, in milligrams, administered over a seven-day period. The period is determined when the modifier is constructed.
Previous Level of Toxicity-Efficacy (PLTE) is a value directly entered such as from a lab report. It is the numerical value of a marker of toxicity or efficacy reported at the previous dose cycle adjustment (evaluated at a specified elapsed time sufficient to capture the nadir of the dose effect). The surrogate marker is selected when the dose modifier is constructed.
Current Level of Toxicity-Efficacy (CLTE) is also a value directly entered such as from a lab report. It is the numerical value of the marker of toxicity or efficacy reported with the current dose cycle. The surrogate marker is that value that illustrates the expression of the toxicity or efficacy of the agent on a specific and pre-selected value determined when the dose modifier is constructed. The value is selected based upon the agent, its pharmacologic properties and the disease condition under treatment. The confidence or validity of the marker is based upon its maturity of effect in that a nadir or cycle of effect is dynamic and may vary based upon the time span between receipt of the agent and sampling of the value. Therefore the value may be valid or invalid based upon this timing factor. If invalid, then the dose adjustment cannot be made. If valid, then the value is fully appreciated and the dose modification can be calculated. The surrogate marker is selected when the dose modifier is constructed.
Expected Current Level (ECL) is a comparative operator used to illustrate the mathematical expectation of the patient's response to the actual patient response to classify their individual response characteristics. […]

SMILES | Platelets LL (Platelets) | Platelets UL (Platelets) | Neutrophil Count (ANC) LL (Neutrophil Count (ANC)) | Neutrophil Count (ANC) UL (Neutrophil Count (ANC)) | Hemoglobin (Hgb) LL (Hemoglobin (Hgb)) | Hemoglobin (Hgb) UL (Hemoglobin (Hgb)) | Current Level of Efficacy/CLTEM1 (LDL [1]; current cycle Lipitor 280 with aerobics 168/week, marker Dec. 05, 2004) | Previous Level of Efficacy/PLTEM1 (LDL [1]; previous cycle Lipitor 210 with aerobics 140/week) | Current Level of Efficacy CLTEM1 (LDL [2]; current cycle Lipitor 300.00 with aerobics 168/week and diet 182/week, marker Dec. 05, 2004) | Previous Level of/PLTEM1 (LDL [2]; previous cycle Lipitor 220.00 with aerobics 140/week and diet 210/week) | Current Level of Efficacy/CLTE (INR; Comparison Cycle column) | Previous Level of Efficacy/PLTE (INR; Comparison Cycle column) | Current Level of Efficacy/CLTE (INR; Current Cycle column) | Previous Level of Efficacy/PLTE (INR; Current Cycle column)
N.N.O=C([O-])C1(C(=O)[O-])CCC1.[Pt+2] [Carboplatin] | 17 days | 25 days | 17 days | 25 days | 14 days | 21 days |  |  |  |  |  |  |  | 
N.N.[Cl][Pt][Cl] [Cisplatin] | 18 days | 23 days | 18 days | 23 days | 18 days | 23 days |  |  |  |  |  |  |  | 
Nc1ccn([C@@H]2O[C@H](CO)[C@@H](O)C2(F)F)c(=O)n1 [Gemzar] | 7 days | 10 days | 7 days | 10 days | 7 days | 10 days |  |  |  |  |  |  |  | 
CC(C)c1c(C(=O)Nc2ccccc2)c(-c2ccccc2)c(-c2ccc(F)cc2)n1CC[C@@H](O)C[C@@H](O)CC(=O)O [Lipitor] |  |  |  |  |  |  | 120 | 150 | 122 | 140 |  |  |  | 
CC(=O)O[C@@]12CO[C@@H]1C[C@H](O)[C@@]1(C)C(=O)[C@H](O)C3=C(C)[C@@H](OC(=O)[C@H](O)[C@@H](NC(=O)OC(C)(C)C)c4ccccc4)C[C@@](O)([C@@H](OC(=O)c4ccccc4)[C@H]21)C3(C)C [Taxotere] | 6 days | 8 days | 6 days | 8 days | 8 days | 11 days |  |  |  |  |  |  |  | 
CC(=O)CC(c1ccccc1)c1c(O)c2ccccc2oc1=O (centres unmarked) [Warfarin Sodium] |  |  |  |  |  |  |  |  |  |  | 3.80 | 4.50 | 3.80 | 4.50
